# Experimental data: US20250059164A1, “IRAK DEGRADERS AND USES THEREOF” (Kymera Therapeutics, Inc., priority 2023, published 2025)
# Molecular target: T1, IRAK4 (Homo sapiens, UniProt Q9NWZ3)
# T1 construct: endogenous in cells; host or cells: OCI-LY10
# T1 sequence (Q9NWZ3 1-460): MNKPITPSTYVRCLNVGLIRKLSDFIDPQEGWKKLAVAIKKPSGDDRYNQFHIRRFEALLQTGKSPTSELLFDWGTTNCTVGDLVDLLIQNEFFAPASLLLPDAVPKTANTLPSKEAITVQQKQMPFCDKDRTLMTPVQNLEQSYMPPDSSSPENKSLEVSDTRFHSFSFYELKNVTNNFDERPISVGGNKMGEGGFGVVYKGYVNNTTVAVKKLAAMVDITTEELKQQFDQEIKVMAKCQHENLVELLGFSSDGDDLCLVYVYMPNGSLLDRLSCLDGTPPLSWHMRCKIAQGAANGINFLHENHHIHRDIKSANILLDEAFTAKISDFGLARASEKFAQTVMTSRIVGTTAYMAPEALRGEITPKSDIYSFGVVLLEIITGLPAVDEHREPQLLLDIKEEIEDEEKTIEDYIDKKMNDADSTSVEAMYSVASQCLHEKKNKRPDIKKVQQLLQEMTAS
# Experiment: IRAK4 MSD degradation in OCI-LY10
# Assay type: cell-based
# Conditions: OCI-LY10 cells, 24 hrs, Meso Scale Discovery
# Description: Degradation of IRAK4 in OCI-LY10 was quantitatively measured using Meso Scale Discovery technology. […] Compounds were then added to the assay plates with a final top concentration of 1 to 10 μM in a 1:3 dilution series with total of 8 doses. The assay plates were then incubated for 4 to 24 hours at 37° C. under 5% CO2. […] To prepare MSD assay plates (Meso Scale Discovery Catalog number L15XA-3), the plates were coated with 2 μg/mL capture antibody (mouse Anti-IRAK4 antibody [2H9], ab119942) in PBS, at 40 μL/well. […] Cell lysates were then added to MSD assay plates and the plates were incubated at room temperature for 1 hour. The plates were then washed 3 times with 150 μL/well TBST buffer and 25 μL/well primary detection antibody (rabbit Anti-IRAK4 antibody [Y279], from Abcam. Catalog number ab32511, 1 μg/mL). The assay plates were then incubated at room temperature for 1 hour, washed 3 times with 150 μL/well TBST buffer and 25 μL/well secondary detection antibody, SULFO-TAG anti-rabbit antibody were added (anti-rabbit antibody from Meso Scale Discovery, Catalog number R32AB-1, 1 μg/mL). The assay plates were then incubated at room temperature for 1 hour, washed 3 times with 150 μL/well TBST buffer, and 150 μL/well MSD reading buffer (Meso Scale Discovery catalog number R92TC-2) was added. The plates were then analyzed by a MSD reader (Meso Scale Discovery, Model Quick Plex SQ 120). The data was then analyzed by software Prism 7.0 from GraphPad and the dose-depended IRAK4 degradation were fit using a three-parameter logistic equation to calculate DC50.
# The letter codes for IRAK4 DC50 include: A (<0.01 μM); B (0.01 to <0.1 μM); C (0.1 to 0.2 μM); D (>0.2 μM) and E (not tested).
row,SMILES,DC50 [nM]
1,"Cn1nc(C2CCC(=O)NC2=O)c2cccc([C@H]3CCN(C[C@H]4CC[C@H](n5cc6cc(NC(=O)c7cncc(C(F)(F)F)n7)ncc6n5)CC4)C[C@@H]3F)c21 (single isomer, unassigned) [I-359]",10 to 100
2,"Cn1c(=O)n(C2CCC(=O)NC2=O)c2ccc(F)c([C@@H]3CCN(C[C@H]4CC[C@H](n5cc6cc(NC(=O)c7cncc(C(F)(F)F)n7)ccc6n5)CC4)CC3(F)F)c21 (single isomer, unassigned) [I-376]",< 10
3,"Cn1c(=O)n(C2CCC(=O)NC2=O)c2ccc(F)c([C@H]3CCN(C[C@H]4CC[C@H](n5cc6cc(NC(=O)c7cncc(C(F)(F)F)n7)ccc6n5)CC4)CC3(F)F)c21 (single isomer, unassigned) [I-377]",< 10
4,"Cn1nc(C2CCC(=O)NC2=O)c2cccc([C@@H]3CCN(C[C@H]4CC[C@H](n5cc6cc(NC(=O)c7cncc(C(F)(F)F)n7)ccc6n5)CC4)CC3(F)F)c21 (single isomer, unassigned) [I-379]",< 10
5,"Cn1nc(C2CCC(=O)NC2=O)c2cccc([C@H]3CCN(C[C@H]4CC[C@H](n5cc6cc(NC(=O)c7cncc(C(F)(F)F)n7)ccc6n5)CC4)CC3(F)F)c21 (single isomer, unassigned) [I-380]",< 10
6,"Cn1c(=O)n([C@@H]2CCC(=O)NC2=O)c2cccc([C@@H]3CCN(C[C@H]4CC[C@H](n5cc6cc(NC(=O)c7cncc(C(F)(F)F)n7)ccc6n5)CC4)CC3(F)F)c21 (single isomer, unassigned) [I-381]",< 10
7,"Cn1c(=O)n([C@H]2CCC(=O)NC2=O)c2cccc([C@@H]3CCN(C[C@H]4CC[C@H](n5cc6cc(NC(=O)c7cncc(C(F)(F)F)n7)ccc6n5)CC4)CC3(F)F)c21 (single isomer, unassigned) [I-385]",< 10
8,"Cn1nc([C@H]2CCC(=O)NC2=O)c2cccc([C@@H]3CCN(C[C@H]4CC[C@H](n5cc6cc(NC(=O)c7cncc(C#N)c7)c(C(C)(C)O)cc6n5)CC4)CC3(F)F)c21 (single isomer, unassigned) [I-417]",< 10
9,O=C1CCC(Nc2cccc(N3CC(CO[C@H]4CCN(C[C@H]5CC[C@H](n6cc(NC(=O)c7cnn8ccc(N9C[C@H]%10C[C@@H]9CO%10)nc78)c(C(F)F)n6)CC5)C[C@@H]4F)C3)c2)C(=O)N1 (some centres unmarked) [I-1],100 to 200
10,CN(C[C@H]1CC[C@H](n2cc3cc(NC(=O)c4cccc(C(F)(F)F)n4)c(C(C)(C)O)cc3n2)CC1)[C@@H]1CCN(c2cccc3c2n(C)c(=O)n3C2CCC(=O)NC2=O)C[C@H]1F (some centres unmarked) [I-2],< 10
11,CN1C(=O)CCC(n2c(=O)n(C)c3c(N4CC(N5CCN([C@H]6CC[C@H](n7cc(NC(=O)c8cnn9ccc(N%10C[C@H]%11C[C@@H]%10CO%11)nc89)c(C(F)F)n7)CC6)CC5)C4)c(F)ccc32)C1=O (some centres unmarked) [I-3],> 200
12,O=C1CCC(Nc2cccc(N3CC(CO[C@@H]4CCN(C[C@H]5CC[C@H](n6cc(NC(=O)c7cnn8ccc(N9C[C@H]%10C[C@@H]9CO%10)nc78)c(C(F)F)n6)CC5)C[C@@H]4F)C3)c2)C(=O)N1 (some centres unmarked) [I-5],10 to 100
13,Cn1c(=O)n(C2CCC(=O)NC2=O)c2cccc([C@@H]3CCN(C[C@H]4CC[C@H](n5cc6cc(NC(=O)c7cccc(C(F)(F)F)n7)c(C(C)(C)O)cc6n5)CC4)C[C@H]3F)c21 (some centres unmarked) [I-7],< 10
14,CN(C[C@H]1CC[C@H](n2cc3cc(NC(=O)c4cccc(C(F)(F)F)n4)c(C#N)cc3n2)CC1)[C@H]1CCN(c2cccc3c2n(C)c(=O)n3C2CCC(=O)NC2=O)C[C@H]1F (some centres unmarked) [I-8],< 10
15,CN(C[C@H]1CC[C@H](n2cc3cc(NC(=O)c4cccc(C(F)(F)F)n4)c(C#N)cc3n2)CC1)[C@H]1CCN(c2cccc3c2n(C)c(=O)n3C2CCC(=O)NC2=O)C[C@@H]1F (some centres unmarked) [I-9],< 10
16,CN(C[C@H]1CC[C@H](n2cc3cc(NC(=O)c4cccc(C(F)(F)F)n4)c(C#N)cc3n2)CC1)[C@@H]1CCN(c2cccc3c2n(C)c(=O)n3C2CCC(=O)NC2=O)C[C@@H]1F (some centres unmarked) [I-10],< 10

row,SMILES,DC50 [nM]
1,O=C1CCC(Nc2cccc(N3CC(CN4CCN(C[C@H]5CC[C@H](n6cc(NC(=O)c7cnn8ccc(N9C[C@H]%10C[C@@H]9CO%10)nc78)c(C(F)F)n6)CC5)CC4)C3)c2)C(=O)N1 (some centres unmarked) [I-13],10 to 100
2,O=C1CCC(c2ccc(N3CC(N4CCN([C@H]5CC[C@H](n6cc(NC(=O)c7cnn8ccc(N9CCCC9)nc78)c(C(F)F)n6)CC5)CC4)C3)cc2Cl)C(=O)N1 (some centres unmarked) [I-14],< 10
3,O=C1CCC(Nc2cccc(N3CCN(C[C@H]4CC[C@H](n5cc6cc(NC(=O)c7cccc(C(F)(F)F)n7)ncc6n5)CC4)CC3)c2)C(=O)N1 (some centres unmarked) [I-15],> 200
4,O=C1CCC(Nc2ccc(N3CC(CN4CCN(C[C@H]5CC[C@H](n6cc(NC(=O)c7cnn8ccc(N9C[C@H]%10C[C@@H]9CO%10)nc78)c(C(F)F)n6)CC5)CC4)C3)cc2Cl)C(=O)N1 (some centres unmarked) [I-16],10 to 100
5,Cc1nn(C2CCC(=O)NC2=O)c2cccc(N3CC(O)(CN4CCN(C[C@H]5CC[C@H](n6cc(NC(=O)c7cnn8ccc(N9C[C@H]%10C[C@@H]9CO%10)nc78)c(C(F)F)n6)CC5)CC4)C3)c12 (some centres unmarked) [I-19],< 10
6,CN(C[C@H]1CC[C@H](n2cc(NC(=O)c3cnn4ccc(N5CCCC5)nc34)c(C(F)F)n2)CC1)[C@H]1CCN(c2cccc3c2n(C)c(=O)n3C2CCC(=O)NC2=O)C[C@@H]1F (some centres unmarked) [I-22],< 10
7,CN(C[C@H]1CC[C@H](n2cc(NC(=O)c3cnn4ccc(N5CCCC5)nc34)c(C(F)F)c2)CC1)[C@@H]1CCN(c2cccc3c2n(C)c(=O)n3C2CCC(=O)NC2=O)C[C@@H]1F (some centres unmarked) [I-23],< 10
8,C[C@H]1CN(c2ccn3ncc(C(=O)Nc4cn([C@H]5CC[C@H](CN(C)[C@H]6CCN(c7cccc8c7n(C)c(=O)n8C7CCC(=O)NC7=O)C[C@H]6F)CC5)nc4C(F)F)c3n2)CCO1 (some centres unmarked) [I-24],< 10
9,C[C@H]1CN(c2ccn3ncc(C(=O)Nc4cn([C@H]5CC[C@H](CN(C)[C@H]6CCN(c7cccc8c7n(C)c(=O)n8C7CCC(=O)NC7=O)C[C@@H]6F)CC5)nc4C(F)F)c3n2)CCO1 (some centres unmarked) [I-25],< 10
10,C[C@H]1CN(c2ccn3ncc(C(=O)Nc4cn([C@H]5CC[C@H](CN(C)C6CCN(c7cccc8c7n(C)c(=O)n8C7CCC(=O)NC7=O)C[C@@H]6F)CC5)nc4C(F)F)c3n2)CCO1 (some centres unmarked) [I-26],< 10
11,CN(C[C@H]1CC[C@H](n2cc3cc(NC(=O)c4cccc(C(F)(F)F)n4)ccc3n2)CC1)[C@H]1CCN(c2cccc3c2n(C)c(=O)n3C2CCC(=O)NC2=O)C[C@H]1F (some centres unmarked) [I-31],< 10
12,CN(C[C@H]1CC[C@H](n2cc3cc(NC(=O)c4cccc(C(F)(F)F)n4)ccc3n2)CC1)C1CCN(c2cccc3c2n(C)c(=O)n3C2CCC(=O)NC2=O)C[C@@H]1F (some centres unmarked) [I-32],< 10
13,CN(C[C@H]1CC[C@H](n2cc3cc(NC(=O)c4cccc(C(F)(F)F)n4)ccc3n2)CC1)[C@H]1CCN(c2cccc3c2n(C)c(=O)n3C2CCC(=O)NC2=O)C[C@@H]1F (some centres unmarked) [I-33],10 to 100
14,CN(C[C@H]1CC[C@H](n2cc3cc(NC(=O)c4cccc(C(F)(F)F)n4)ncc3n2)CC1)[C@H]1CCN(c2cccc3c2n(C)c(=O)n3C2CCC(=O)NC2=O)C[C@H]1F (some centres unmarked) [I-34],< 10
15,CN(C[C@H]1CC[C@H](n2cc3cc(NC(=O)c4cccc(C(F)(F)F)n4)ncc3n2)CC1)[C@@H]1CCN(c2cccc3c2n(C)c(=O)n3C2CCC(=O)NC2=O)C[C@@H]1F (some centres unmarked) [I-35],< 10
16,CC(C)Oc1cc2nc([C@H]3CC[C@H](CN4CCC(c5ccc6c(c5)n(C)c(=O)n6C5CCC(=O)NC5=O)CC4)CC3)cn2cc1C(=O)Nc1cccn([C@H]2C[C@H]2F)c1=O (some centres unmarked) [I-37],< 10
